Measured values reported in patent US8178544B2, “2, 3-diamino-quinazolinone derivatives and their medical use” (Neurosearch A/S, priority 2007, dated 2012).

Target: T1, human Kv7.2+Kv7.3 channels (Homo sapiens, UniProt O43525+O43526)
T1 construct: expressed in transfected cells; host or cells: HEK293
Assay: Patch-clamp on HEK293 cell lines stably expressing human Kv7.2+Kv7.3 channels
Format: cell-based
Settings: current relative to baseline current defined as 100%, HEK293 cells, test concentration not given
Text: The effect obtained by these channel activators is described as a percentage increase in baseline current at a given concentration. The baseline current is defined as 100%, and an increase in current is expressed relative to this, i.e. an increase from 1 nA to 1.2 nA is reported as 120%.

Row | Structure (SMILES) | IK (%) at −30 mV, 1 s [%]
1 | CCN(CC)c1nc2ccc(F)cc2c(=O)n1NC(=O)Cc1cc(F)cc(F)c1 [Compound C19, N-(2-Diethylamino-6-fluoro-4-oxo-4H-quinazolin-3-yl)-2-(3,5-difluoro-phenyl)-acetamide] | 215
2 | O=C(Cc1ccc(C(F)(F)F)c(F)c1)Nn1c(N2CCCC2)nc2ccccc2c1=O [Compound C11, 2-(3-Fluoro-4-trifluoromethyl-phenyl)-N-(4-oxo-2-pyrrolidin-1-yl-4H-quinazolin-3-yl)-acetamide] | 153
3 | O=C(Cc1cc(F)cc(F)c1)Nn1c(N2CCCC2)nc2ccccc2c1=O [Compound C1, 2-(3,5-Difluoro-phenyl)-N-(4-oxo-2-pyrrolidin-1-yl-4H-quinazolin-3-yl)-acetamide] | 150
4 | CC(C(=O)Nn1c(N(C)C)nc2cc(C(F)(F)F)ccc2c1=O)c1cc(F)cc(F)c1 (stereo not shown) [Compound C5, 2-(3,5-Difluoro-phenyl)-N-(2-dimethylamino-4-oxo-7-trifluoromethyl-4H-quinazolin-3yl)-propionamide] | 143
5 | CCN(CC)c1nc2ccccc2c(=O)n1NC(=O)Cc1ccc(Cl)cc1 [Compound C3, 2-(4-Chloro-phenyl)-N-(2-diethylamino-4-oxo-4H-quinazolin-3-yl)-acetamide] | 144
6 | CCN(CC)c1nc2ccccc2c(=O)n1NC(=O)Cc1cc(F)cc(F)c1 [Compound D2, N-(2-Diethylamino-4-oxo-4H-quinazolin-3-yl)-2-(3,5-difluoro-phenyl)-acetamide] | 290
7 | CCN(CC)c1nc2ccc(O)cc2c(=O)n1NC(=O)Cc1cc(F)cc(F)c1 [Compound F1, N-(2-Diethylamino-6-hydroxy-4-oxo-4H-quinazolin-3-yl)-2-(3,5-difluoro-phenyl)-acetamide] | 110
